Assay results as given in the supplement of paper PMC4862054.
One block for each compound: values may come before it.

How the values were obtained:
Details in all cases: 72 h
[1] = test system: MDA-MB-468
Protocol: (§1)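 Drug sensitivity and resistance testing (DSRT) of breast cancer cell lines in 384-well plates, 5 concentrations in 10-fold dilutions over a compound-specific 10,000-fold range. After 72 h, cytotoxicity was read by CellTox Green fluorescence and viability by CellTiter-Glo luminescence (multiplexed), normalised to DMSO and benzethonium chloride controls. EC50 is the inflection point of the fitted dose-response curve (bottom asymptote free, so it can be relative for partial curves) and is censored at the highest tested concentration. Rows with DSS 0 (no meaningful response) were excluded.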

[2] = test system: MDA-MB-231
Protocol: as §1

[3] = test system: CAL-120
Protocol: as §1

[4] = test system: MDA-MB-436
Protocol: as §1

[5] = test system: MDA-MB-453
Protocol: as §1

[6] = test system: HCC1937
Protocol: as §1

[7] = test system: CAL-85-1
Summary of the method: (§2)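 The plates used were 384-well plates holding compound at 5 concentrations in 10-fold steps across a compound-specific 10,000-fold range, into which breast cancer cell lines were seeded in 20 µl suspension. Following 72 h incubation, CellTox Green fluorescence was read at 485/520 nm, and CellTiter-Glo luminescence was read after 10 min at room temperature. Normalisation on each plate used 0.1 % DMSO and a positive kill control. Dose-response curves gave the EC50, which was censored at the top concentration.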

[8] = test system: MDA-MB-453; remark: listed apart in the source
Summary of the method: as §2

[9] = test system: HCC1937; remark: listed apart in the source
Summary of the method: as §2

[10] = test system: CAL-51
Protocol: as §1

[11] = test system: MDA-MB-468; remark: listed apart in the source
Summary of the method: (§3)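 Breast cancer cell lines in 20 µl suspension were seeded onto 384-well plates that already held compound dissolved in 5 µl medium and were incubated for 72 h. Viability was measured by adding 2.5 µl CellTiter-Blue for 2 h at 37 °C and reading fluorescence at 560/590 nm. Each plate was normalised to vehicle and a positive kill control and checked by Z'-factor. EC50 was taken from a fitted percent-inhibition dose-response curve, censored at the highest concentration, and rows with a drug sensitivity score of zero were removed.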

[12] = test system: MDA-MB-231; remark: listed apart in the source
Summary of the method: as §3

[13] = test system: SK-BR-3
Summary of the method: as §3

[14] = test system: Hs578T
Summary of the method: as §3

[15] = test system: BT-474
Summary of the method: as §3

[16] = test system: HCC1937; remark: listed apart in the source
Summary of the method: as §3

[17] = test system: HDQ-P1
Summary of the method: as §2

[18] = test system: DU-4475
Protocol: as §1

[19] = test system: HCC1599
Protocol: as §1

[20] = test system: CAL-148
Protocol: as §1

[21] = test system: MFM-223
Protocol: as §1

[22] = test system: HCC1143
Protocol: as §1

[23] = test system: Hs578T; remark: listed apart in the source
Protocol: as §1

[24] = test system: HDQ-P1; remark: listed apart in the source
Protocol: as §1

[25] = test system: BT-474; remark: listed apart in the source
Protocol: as §1

[26] = test system: HCC1599; remark: listed apart in the source
Summary of the method: as §2

[27] = test system: CAL-148; remark: listed apart in the source
Summary of the method: as §2

[28] = test system: BT-549
Protocol: as §1

EC50, CellTiter-Glo [8]: 6910 nM
EC50, CellTiter-Glo [9]: 5190 nM
Structure (SMILES): CC/C(=C(\c1ccc(O)cc1)c1ccc(OCCN(C)C)cc1)c1ccccc1 [4-hydroxytamoxifen]
EC50, CellTox Green [1]: 92.3 nM
EC50, CellTox Green [2]: 4260 nM
EC50, CellTox Green [3]: 9170 nM
EC50, CellTox Green [4]: 2800 nM
EC50, CellTox Green [5]: 9550 nM
EC50, CellTox Green [6]: 1930 nM
EC50, CellTiter-Glo [7]: 3340 nM

EC50, CellTiter-Blue viability [11]: 841 nM
EC50, CellTiter-Blue viability [12]: 503 nM
EC50, CellTiter-Blue viability [13]: 267 nM
EC50, CellTiter-Blue viability [15]: 1630 nM
EC50, CellTiter-Blue viability [16]: 257 nM
Structure (SMILES): O=C(Nc1c[nH]nc1-c1nc2ccc(CN3CCOCC3)cc2[nH]1)NC1CC1 [AT9283]
EC50, CellTox Green [1]: 0.51 nM
EC50, CellTox Green [10]: 0.88 nM
EC50, CellTox Green [2]: 24.6 nM
EC50, CellTox Green [3]: 192 nM
EC50, CellTiter-Blue viability [14]: 337 nM
EC50, CellTiter-Glo [17]: 303 nM

EC50, CellTiter-Glo [26]: 71.3 nM
EC50, CellTiter-Glo [8]: 11 nM
EC50, CellTiter-Glo [9]: 199 nM
Structure (SMILES): Cn1cc(CNCC2CCN(c3ncc(C(=O)NO)cn3)CC2)c2ccccc21 [Quisinostat]
EC50, CellTox Green [1]: 5.87 nM
EC50, CellTox Green [18]: 95.6 nM
EC50, CellTox Green [19]: 106 nM
EC50, CellTox Green [10]: 116 nM
EC50, CellTox Green [2]: 72.5 nM
EC50, CellTox Green [3]: 65.6 nM
EC50, CellTox Green [20]: 52.1 nM
EC50, CellTox Green [21]: 58.8 nM
EC50, CellTox Green [5]: > 1000 nM
EC50, CellTox Green [22]: 134 nM
EC50, CellTox Green [23]: 60.3 nM
EC50, CellTox Green [24]: 396 nM
EC50, CellTox Green [25]: 36 nM
EC50, CellTiter-Glo [27]: 28.3 nM
EC50, CellTiter-Glo [7]: 34.1 nM
EC50, CellTiter-Glo [17]: 148 nM

The remaining lines, values behind:

Structure (SMILES): CCC/C=C/C=C/C(=O)O[C@H]1/C(=C/C(=O)OC)C[C@H]2C[C@H]([C@@H](C)O)OC(=O)C[C@H](O)C[C@@H]3C[C@H](OC(C)=O)C(C)(C)[C@](O)(C[C@@H]4C/C(=C/C(=O)OC)C[C@H](/C=C/C(C)(C)[C@]1(O)O2)O4)O3 [Bryostatin 1]
EC50, CellTox Green [24]: 0.9 nM
EC50, CellTiter-Blue viability [13]: 155 nM

Structure (SMILES): C[C@]12O[C@H](C[C@]1(O)CO)n1c3ccccc3c3c4c(c5c6ccccc6n2c5c31)CNC4=O [Lestaurtinib]
EC50, CellTox Green [19]: 439 nM
EC50, CellTox Green [28]: 1000 nM
EC50, CellTox Green [2]: > 1000 nM
EC50, CellTox Green [4]: 11.9 nM
EC50, CellTox Green [23]: 333 nM
EC50, CellTox Green [25]: 819 nM
EC50, CellTiter-Blue viability [13]: 813 nM
EC50, CellTiter-Blue viability [16]: 369 nM
EC50, CellTiter-Glo [26]: 238 nM
EC50, CellTiter-Glo [7]: 277 nM
EC50, CellTiter-Glo [8]: 3.03 nM
EC50, CellTiter-Glo [17]: 233 nM
EC50, CellTiter-Glo [9]: > 1000 nM

Structure (SMILES): C[C@]12C=CC(=O)C=C1CC[C@@H]1[C@@H]2[C@@H](O)C[C@@]2(C)[C@H]1CC[C@]2(O)C(=O)CO [Prednisolone]
EC50, CellTox Green [24]: 7320 nM
